Laboratory results reported in ChEMBL document CHEMBL4715697, “Synthesis and biological activity of benzamide DNA minor groove binders” (2016).

Key:
[1] = system: Malme-3M; experiment: Growth inhibition of human Malme-3M cells assessed as cell growth at 10 uM incubated for 48 hrs by sulforhodamine B assay relative to control; assay type: functional; conditions: read-out: Activity
[2] = system: MDA-MB-435; experiment: Growth inhibition of human MDA-MB-435 cells assessed as cell growth at 10 uM incubated for 48 hrs by sulforhodamine B assay relative to control; assay type: functional; conditions: read-out: Activity
[3] = system: RPMI-8226; experiment: Growth inhibition of human RPMI-8226 cells assessed as cell growth at 10 uM incubated for 48 hrs by sulforhodamine B assay relative to control; assay type: functional; conditions: read-out: Activity
[4] = system: UACC-62; experiment: Growth inhibition of human UACC-62 cells assessed as cell growth at 10 uM incubated for 48 hrs by sulforhodamine B assay relative to control; assay type: functional; conditions: read-out: Activity
[5] = system: SN12C; experiment: Growth inhibition of human SN12C cells assessed as cell growth at 10 uM incubated for 48 hrs by sulforhodamine B assay relative to control; assay type: functional; conditions: read-out: Activity
[6] = system: CCRF-CEM; experiment: Growth inhibition of human CCRF-CEM cells assessed as cell growth at 10 uM incubated for 48 hrs by sulforhodamine B assay relative to control; assay type: functional; conditions: read-out: Activity
[7] = system: SNB-19; experiment: Growth inhibition of human SNB-19 cells assessed as cell growth at 10 uM incubated for 48 hrs by sulforhodamine B assay relative to control; assay type: functional; conditions: read-out: Activity
[8] = system: NCI-H460; experiment: Growth inhibition of human NCI-H460 cells assessed as cell growth at 10 uM incubated for 48 hrs by sulforhodamine B assay relative to control; assay type: functional; conditions: read-out: Activity
[9] = system: SR; experiment: Growth inhibition of human SR cells assessed as cell growth at 10 uM incubated for 48 hrs by sulforhodamine B assay relative to control; assay type: functional; conditions: read-out: Activity
[10] = system: SK-MEL-2; experiment: Growth inhibition of human SK-MEL-2 cells assessed as cell growth at 10 uM incubated for 48 hrs by sulforhodamine B assay relative to control; assay type: functional; conditions: read-out: Activity
[11] = system: RXF 393; experiment: Growth inhibition of human RXF 393 cells assessed as cell growth at 10 uM incubated for 48 hrs by sulforhodamine B assay relative to control; assay type: functional; conditions: read-out: Activity
[12] = system: COLO 205; experiment: Growth inhibition of human COLO 205 cells assessed as cell growth at 10 uM incubated for 48 hrs by sulforhodamine B assay relative to control; assay type: functional; conditions: read-out: Activity
[13] = system: U-251; experiment: Growth inhibition of human U-251 cells assessed as cell growth at 10 uM incubated for 48 hrs by sulforhodamine B assay relative to control; assay type: functional; conditions: read-out: Activity
[14] = system: Hs-578T; experiment: Growth inhibition of human Hs-578T cells assessed as cell growth at 10 uM incubated for 48 hrs by sulforhodamine B assay relative to control; assay type: functional; conditions: read-out: Activity
[15] = system: SK-MEL-28; experiment: Growth inhibition of human SK-MEL-28 cells assessed as cell growth at 10 uM incubated for 48 hrs by sulforhodamine B assay relative to control; assay type: functional; conditions: read-out: Activity
[16] = system: ACHN; experiment: Growth inhibition of human ACHN cells assessed as cell growth at 10 uM incubated for 48 hrs by sulforhodamine B assay relative to control; assay type: functional; conditions: read-out: Activity
[17] = system: Poly(dA-dT)oligonucleotide; experiment: Displacement of ethidium bromide from minor groove of poly(dA:dT) dsDNA (unknown origin) by fluorescence spectrophotometry; assay type: nucleic-acid assay
[18] = system: Poly(dA-dT)oligonucleotide; experiment: Binding affinity to minor groove of poly(dA:dT) dsDNA (unknown origin) assessed as change in melting temperature by UV-vis spectrophotometry based DNA melting assay; assay type: nucleic-acid assay
[19] = system: OVCAR-4; experiment: Growth inhibition of human OVCAR-4 cells assessed as cell growth at 10 uM incubated for 48 hrs by sulforhodamine B assay relative to control; assay type: functional; conditions: read-out: Activity
[20] = system: SF-295; experiment: Growth inhibition of human SF-295 cells assessed as cell growth at 10 uM incubated for 48 hrs by sulforhodamine B assay relative to control; assay type: functional; conditions: read-out: Activity

| SMILES | growth at 10 µM [1] | growth at 10 µM [2] | growth at 10 µM [3] | growth at 10 µM [4] | growth at 10 µM [5] | growth at 10 µM [6] | growth at 10 µM [7] | growth at 10 µM [8] | growth at 10 µM [9] | growth at 10 µM [10] | growth at 10 µM [11] | growth at 10 µM [12] | growth at 10 µM [13] | growth at 10 µM [14] | growth at 10 µM [15] | growth at 10 µM [16] | C50 [17] | ΔTm [18] | growth at 10 µM [19] | growth at 10 µM [20] |
| --- | --- | --- | --- | --- | --- | --- | --- | --- | --- | --- | --- | --- | --- | --- | --- | --- | --- | --- | --- | --- |
| CC(=O)Nc1ccc(C(=O)Nc2cc(CO)cc(NC(C)=O)c2)cc1 | 115% | 108% | 96.6% | 101% | 104% | 82.2% | 100% | 109% | 92.1% | 96.3% | 112% | 118% | 110% | 121% | 116% | 108% | – | – | – | – |
| CC(=O)Nc1cc(CO)cc(NC(=O)c2ccc(C(=O)Nc3cccc(NC(=O)CCCN(C)C)c3)cc2)c1 | 17.6% | 70% | 95.6% | 64.6% | 103% | 41.2% | 114% | 90.3% | 11% | 91.8% | 113% | 76.3% | 69.9% | – | 85.3% | 92.8% | 118 µM | 30.7 °C | 34.8% | – |
| CC(=O)Nc1cc(CO)cc(NC(=O)c2cccc(NC(=O)CCCN3CCOCC3)c2)c1 | 112% | 103% | 92.1% | 100% | 101% | 89.4% | 97.7% | 108% | 105% | 97.8% | 105% | 110% | 104% | 114% | 115% | 108% | – | – | – | 120% |
| CC(=O)Nc1cc(CO)cc(NC(=O)c2ccc(NC(=O)CCCN3CCOCC3)cc2)c1 | 130% | 100% | 93.6% | 98.3% | 97% | 87% | 99.4% | 110% | 108% | 101% | 114% | 106% | 105% | 114% | 113% | 109% | – | – | – | 150% |
| CC(=O)Nc1cc(CO)cc(NC(=O)c2ccc(C(=O)NCCCN(C)C)cc2)c1 | 100% | 103% | 98.2% | 95.9% | 95.6% | 90% | 101% | 112% | 91.7% | 92.9% | 116% | 114% | 107% | 114% | 108% | 108% | > 1000 µM | – | 103% | – |
| CC(=O)Nc1cc(CCl)cc(NC(=O)c2ccc(C(=O)NCCCN(C)C)cc2)c1 | 109% | 105% | – | 114% | 128% | 103% | 117% | 104% | – | 102% | 116% | 111% | 103% | 111% | 107% | 105% | 506 µM | 21.6 °C | – | 97.6% |
